Test results published in ChEMBL document CHEMBL1201862, “PubChem BioAssay data set” (2004).
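These data come from cells grown in 96-well plates and exposed to compound for 48 hours at five concentrations. GI50: concentration for 50% inhibition of growth.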 The source made the active and inactive calls. Cut-off read from the data, not from the text of the source: active = GI50 up to about 1.1 µM and inactive = higher.

How the values were obtained:
Experiment in all cases: DTP human tumour cell line panel, 48 h
A498 = tested on: A498
HCT-116 = tested on: HCT-116
HOP-62 = tested on: HOP-62
MCF7 = tested on: MCF7
MDA-MB-231 = tested on: MDA-MB-231
NCI-H226 = tested on: NCI-H226
NCI/ADR-RES = tested on: NCI/ADR-RES
OVCAR-3 = tested on: OVCAR-3
OVCAR-4 = tested on: OVCAR-4
PC-3 = tested on: PC-3
SF-295 = tested on: SF-295
SK-MEL-28 = tested on: SK-MEL-28
SN12C = tested on: SN12C
SNB-75 = tested on: SNB-75
SR = tested on: SR
SW-620 = tested on: SW-620
T47D = tested on: T47D
U-251 = tested on: U-251
UACC-257 = tested on: UACC-257
UACC-62 = tested on: UACC-62

Measured: GI50

O=CC(I)=C(c1ccccc1)c1ccccc1
inactive: A498 20.7 µM | HCT-116 14.2 µM | HOP-62 18.1 µM | MCF7 16.3 µM | MDA-MB-231 14.6 µM | NCI-H226 23.8 µM | NCI/ADR-RES 20 µM | OVCAR-3 13.2 µM | OVCAR-4 13.4 µM | PC-3 15.2 µM | SF-295 17.3 µM | SK-MEL-28 17.2 µM | SN12C 20.7 µM | SNB-75 17.1 µM | SR 6.92 µM | SW-620 8.47 µM | T47D 13.3 µM | U-251 15.1 µM | UACC-257 20.4 µM | UACC-62 16.5 µM

Cc1cccc2c1NC(=S)[C@@H]1CCCN1C2=O
inactive: A498 > 100 µM | HCT-116 > 100 µM | HOP-62 > 100 µM | MCF7 > 100 µM | MDA-MB-231 > 100 µM | NCI-H226 > 100 µM | NCI/ADR-RES > 100 µM | OVCAR-3 > 100 µM | OVCAR-4 > 100 µM | PC-3 > 100 µM | SF-295 > 100 µM | SK-MEL-28 > 100 µM | SN12C > 100 µM | SNB-75 54 µM | SR > 100 µM | SW-620 > 100 µM | T47D > 100 µM | U-251 > 100 µM | UACC-257 > 100 µM | UACC-62 > 100 µM

C=C(C)[C@@H]1CC[C@]2(C(=O)O)CC[C@]3(C)[C@H](CC[C@@H]4[C@@]5(C)CC(=O)C(C)(C)[C@@H]5CC[C@]43C)[C@@H]12
inactive: A498 5.6 µM | HCT-116 4.01 µM | HOP-62 9.46 µM | MCF7 6.64 µM | MDA-MB-231 5.65 µM | NCI-H226 9.38 µM | NCI/ADR-RES 11.1 µM | OVCAR-3 6.38 µM | OVCAR-4 15 µM | PC-3 7.24 µM | SF-295 6.47 µM | SK-MEL-28 8.11 µM | SN12C 4.46 µM | SNB-75 10.6 µM | SR 5.13 µM | SW-620 7.23 µM | T47D 14.9 µM | U-251 6.47 µM | UACC-257 7.55 µM | UACC-62 3.28 µM
